Legend:
[1] = test system: respiratory epithelial cells; assay: Goblet cell differentiation of respiratory epithelial cells upon IL-13 stimulation (PAS and Alcian blue staining); type: cell-based, human
Description: After the cell count was determined, cells were plated at the cell density of 10^6 cells/cm^2 on a filter membrane with 0.45-μm pores, being attached to the bottom of a Millicell-HA Culture Plate Insert (Millipore Corp.). At the time of plating, Vitrogen gel (Vitrogen from Celtrix Pharmaceuticals, Inc. was used after gelation) was placed on the filter membrane as a growth-supporting material, and the epithelial cells were placed thereon. The Millicell inserts were placed in a 24-well plate (Falcon) containing a culture medium, which was a 1:1 mixture of Dulbecco's MEM and Ham F12 containing 2% Ultroser G and the antibiotics, penicillin, streptomycin, gentamycin, and amphotericin B. The cells were incubated overnight. Then, cells that had not adhered to the collagen gel were removed, and the remaining cells were cultured while the cell side was in contact with air (air interface) for approximately two weeks (See FIG. 1). The basic procedures of the AI method by which respiratory epithelial cells were cultured were the same as those described in the following reports:
As basically done in the AI method, Vitrogen gel was placed on a filter membrane, and epithelial cells were placed thereon. The IMM method is different from the AI method in the point that the IMM method comprises adding a medium to cover the epithelial cells. […]

pendrin gene = assay: Quantitative PCR (ABI 7700) of the pendrin gene in epithelial cells cultured by the AI or IMM method; type: cell-based, human; conditions: respiratory tract epithelial cells
From the text: Quantitative PCR assays were further performed with ABI 7700 using two batches of epithelial cells cultured respectively by the AI method and the IMM method described in Example 1 to quantitatively determine the expression level of the pendrin gene selected in Example 5. The primers and TaqMan probe used in the assays with ABI 7700 were designed based on the information on the sequence of the pendrin gene utilizing Primer Express (PE Biosystems). The 5′ and 3′ ends of the TaqMan probe were labeled with FAM (6-carboxy-fluorescein) and TAMRA (6-carboxy-N,N,N′,N′-tetramethylrhodamine), respectively. The sequences of oligonucleotides of the forward primer (F), reverse primer (R), and TaqMan probe (TP) for the pendrin gene are shown below. The GenBank accession number corresponding to the nucleotide sequence of each marker gene is shown in parenthesis after the name.
Total RNA extracted by the aforementioned method was treated with DNase (Nippon Gene). […]
Additionally, to correct the differences of cDNA concentration in the sample, a similar quantitative analysis was performed for β-actin gene and glyceraldehyde-3-phosphate dehydrogenase (GAPDH) gene as internal standards for correction. By correcting based on the number of copies of these genes, the number of copies of the genes of interest was calculated. […]

mouse pendrin gene = assay: Quantitative PCR of the mouse pendrin gene in the lung of the OVA antigen-exposed bronchial hypersensitivity model; type: in vivo; conditions: lung 24 hours after third antigen inhalation

Substance | differentiation into goblet cells (PAS and Alcian blue staining) ([1]; AI method, IL-13 50 ng/mL, after 14 days of incubation) | goblet cell differentiation ([1]; IMM method) | pendrin gene expression level, elevation as a result of IL-13 stimulation (quantitative PCR) (pendrin gene) | mouse pendrin gene expression level in the lung versus physiological saline-inhaled mice (quantitative PCR) (mouse pendrin gene)
IL-13: human IL-13 (Peprotech, Inc.) added to the medium at 50 ng/mL to stimulate respiratory epithelial cells | differentiated into goblet cells | not observed | hundred folds or more | 
ovalbumin [OVA antigen, ovalbumin antigen used for sensitization and inhalation to induce bronchial hypersensitivity in mice] |  |  |  | about 50 times

Source: patent US20050208496A1, “Methods of testing for bronchial asthma or chronic obstructive pulmonary disease” (Genox Research, Inc., priority 2002, published 2005)
